Reference: patent publication US9725490B2, “ERAP1-derived peptide and use thereof” (TOKUSHIMA UNIVERSITY, priority 2011, dated 2017)

Key:
KPL-3C tumor = test: In vivo inhibition of tumor proliferation, concomitant use with tamoxifen, KPL-3C transplant; set-up: species or system BALB/c nude mouse; settings: intraperitoneal every day, day 14
Source text: FIG. 18 is a diagram illustrating the influence of concomitant use of the ERAP1-peptide and tamoxifen on tumor proliferation in a human breast cancer-transplanted mouse. KPL-3 cells were subcutaneously transplanted into the breast fat body of a BALB/c nude mouse. The treatment test individuals/group) was initiated (day 0) when the volume of the tumor reached about 50-80 mm^3 in the absence E2.
KPL-3 cells were subcutaneously transplanted into the breast fat body of a BALB/c nude mouse. When the volume of the tumor reached about 50-80 mm^3 in the absence of E2, the treatment test (5 individuals/group) was initiated (day 0). KPL-3C tumor heterotransplant-carrying mouse was administered with the ERAP1-peptide alone (3.5, 7 and 14 mg/kg), the scramble peptide alone (14 mg/kg), tamoxifen alone (4 mg/kg) or a combination of the ERAP1-peptide (14 mg/kg) and tamoxifen (4 mg/kg) every day by intraperitoneal injection.

[1] = system: transcriptional activity of ERα (AP-1); test: AP-1-luciferase reporter assay in MCF-7 cells; format: cell-based, human; settings: 10 nM E2 24 hours
Procedure: FIG. 3-3 is as diagram illustrating the results of the luciferase assay by which the inhibition effect of the ERAP1-peptide was evaluated. MCF-7 cells temporarily transfected with an ERE-luciferase reporter vector (F) or an AP-1-luciferase reporter vector (F) were treated with the ERAP1-peptide, the scramble peptide or the mutant peptide in the concentrations shown in the […]. Then, immediately, the cells were stimulated with 10 nM E2 for 24 hours. TAM indicates the tamoxifen treatment.
FIG. 4-3 is a diagram illustrating that the ERAP1-peptide promotes nuclear translocation of PHB2. (C) and (D) are figures that show the results of the luciferase assay by which the inhibition effect of the ERAP1-peptide on the ERα transcriptional activity was evaluated. MCF-7 cells temporarily transfected with an ERE-luciferase reporter vector (C) or an AP-1-luciferase reporter vector (D) were treated with the ERAP1-peptide in the concentrations shown in the figure or 10 nM tamoxifen. Then, immediately, the cells were stimulated with 10 nM E2 thr 24 hours.
For ERE reporter assay, MCF-7 cells were transfected with ERE reporter (SABiosciences, Frederick, Md., USA) in accordance with the instruction of the manufacturer. For AP-1 reporter assay, MCF-7 cells were transfected with AP-1 reporter (mouse IL-11 promoter comprising two tandem AP-1 sites subcloned into PGL2-basic vector), c-fos, c-Jun and pRL-TK as an internal standard. After 16 hours from the transfection, the culture medium was exchanged with an assay culture medium (Opti-MEM, 10% FBS, 0.1 mM NEAA, 0.1 mM Sodium pyruvate and 10 μg/ml insulin) After 24 hours from the transfection, the cells were treated with E2 and/or the ERAP1-peptide or 24 hours. The cells were harvested, and the activities of luciferase and Renilla-luciferase were evaluated using Promega dual luciferase reporter assay (Tokyo, Japan). In consideration of the transfection efficiency, all of the data were standardized by the activity of Renilla-luciferase.

[2] = system: PHB2/REA localization in MCF-7 cells; test: Nuclear translocation of PHB2/REA (fractionation, immunoblotting, immunostaining); format: cell-based, human; settings: for nuclear translocation of PHB2/REA, temporal: 1 hour to 24 hours after administration
Procedure: FIG. 3-1 is a diagram illustrating that ERAP1-peptide treatment promotes nuclear translocation of PHB2. […] MCF-7 cells were stimulated for 24 hours with 10 μM ERAP1-peptide and/or 10 nM E2. The cells were fractioned into mitochondria, cytoplasm, and nuclear fractions by specific gravity centrifugation. Then, each fraction was subjected to immunoblotting analysis using an anti-ERAP1 antibody and an anti-PHB2 antibody. PRDX3, α/β-Tublin (Tublin) and lamin B are markers for mitochondria, cytoplasm, and nuclear fractions, respectively (upper panel). The protein content of each fraction was evaluated with Coomassie-stained SDS-PAGE gel (lower panel). […] KPL-3C cells were treated for 24 hours with 10 μM HA-tagged ERAP1-peptide and/or 10 nM E2. Then, the cells were fractionated into cytoplasm and nuclear fractions by specific gravity centrifugation. Then, which fraction was immunoprecipitated with anti-ERα antibody, an anti-ERAP1 antibody or an anti-PHB2 antibody. Then, immunoblotting was performed with each antibody shown in the figure (an anti-ERAP1 antibody, an anti-ERα antibody, an anti-PHB2 antibody and an anti-HA antibody (Peptide)). α/β-Tubulin (Tubulin) and Lamin B are markers for cytoplasm and nuclear fractions, respectively.
FIG. 4-1 is a diagram illustrating that the ERAP1-peptide promotes nuclear translocation of PHB2. (A) The upper panel illustrates representative images of stained immune cells, showing the intracellular localization of PHB2. MCF-7 cells were treated with 10 μM ERAP1-peptide or ERAP1-scramble peptide. Subsequently, the cells were treated with 10 nM E2. After the immobilization, the cells were subjected to immunofluorescent staining using an anti-PHB2 antibody and DAPI (for discriminating the nucleus).
FIG. 4-2 is a diagram illustrating that the ERAP1-peptide promotes nuclear translocation of PHB2. (B) is a diagram illustrating the results of immunoblotting analysis by which the intracellular localization of PHB2 was detected, MCF-7 cells were treated with the ERAP1-peptide or the ERAP1-scramble peptide. Subsequently immediately, the cells were treated with 10 nM E2. The cells were fractionated into cytoplasm and nuclear fractions after 1 hour or 24 hours. Each fraction was immunoprecipitated with anti-ERα antibody, an anti-ERAP1 antibody or a PH82 antibody. […]
MCF-7 cells were seeded in an 8-well chamber (Laboratory-Tek II Chamber Slide System, Nalgen Nunc International, Naperville, Ill., USA) in 5×10^4 cells/well, and cultured under estrogen-free condition for 24 hours. […] The fluorescence image was obtained under Olympus IX71 microscope (Tokyo, Japan). […]

In the case of CSCC[C@H](NC(=O)[C@H](CCC(N)=O)NC(=O)[C@H](CCCNC(=N)N)NC(=O)[C@H](CCCNC(=N)N)NC(=O)[C@H](CCCNC(=N)N)NC(=O)[C@H](CCCNC(=N)N)NC(=O)[C@H](CCCNC(=N)N)NC(=O)[C@H](CCCNC(=N)N)NC(=O)[C@H](CCCNC(=N)N)NC(=O)[C@H](CCCNC(=N)N)NC(=O)[C@H](CCCNC(=N)N)NC(=O)[C@H](CCCNC(=N)N)NC(=O)[C@@H](N)CCCNC(=N)N)C(=O)N[C@@H](CC(C)C)C(=O)N[C@@H](CO)C(=O)N[C@@H](CC(=O)O)C(=O)N[C@@H](CC(C)C)C(=O)N[C@H](C(=O)N[C@@H](CC(C)C)C(=O)N[C@@H](CCC(N)=O)C(=O)N[C@@H](CC(C)C)C(=O)N[C@@H](CCCNC(=N)N)C(=O)N[C@@H](CCC(N)=O)C(=O)N[C@@H](CCCNC(=N)N)C(=O)O)[C@@H](C)O [ERAP1-peptide], the “antitumor effect (tumor volume)” value (KPL-3C tumor) is reported as “dose-dependent (3.5, 7 and 14 mg/kg) antitumor effect”, the “transcriptional activity of ERα in AP-1” value [1] is reported as “suppressed the transcriptional activity of ERα” and the “nuclear translocation of PHB2/REA, temporal” value [2] is reported as “Prompt nuclear translocation of inherent PHB2/REA at 1 hour”. For the same compound, the “translocation of PHB2/REA from the cytoplasm into the nucleus” value ([2]; E2 and peptide at the same time, 10 μM, 24 hours) was “remarkable translocation of PHB2/REA from the cytoplasm into the nucleus”.
For “DRQLQLSTLQRML (SEQ ID NO: 28) (ERAP1-scramble peptide) [reference compound]”, the “antitumor effect (tumor volume)” value (KPL-3C tumor) was “the effect was not recognized”, the “transcriptional activity of ERα in AP-1” value [1] was “no change was recognized” and the “nuclear translocation of PHB2/REA, temporal” value [2] was “not recognized”.
